From US7378445B2, “Treatment of prostate cancer” (Peplin Research Pty. Ltd., priority 2000, dated 2008) come the findings set out here.

Holding throughout (assay type): cell-based
In series [1] the test system is DU145 prostate cancer cells. The series can be described thus: Combination with chemotherapeutic agents, cytotoxicity (3H-thymidine incorporation). The following applies: 24 hr treatment, then five days growth; for cytotoxicity of combination with cisplatin compared to additive cytotoxicity: FIGS. 6A, 6B, 6E; for cytotoxicity of combination with SBHA compared to additive cytotoxicity: FIGS. 6C, 6D. The method, then:
The prostate cancer cells were treated with (A) PEP006 and cisplatin, (B) PEP008 and cisplatin, (C) PEP005 and SBHA, (D) PEP008 and SBHA and (E) PEP005 and cisplatin for 24 hr after which the medium was changed and the cells permitted to grow in the presence of ^3H-thymidine for five days. The percentage cell survival was determined by measuring the incorporation of ^3H-thymidine in the cells.

Series [2] has as its system neonatal foreskin fibroblasts. The series can be described thus: Killing by untreated leukocytes of drug-pretreated normal cells ([3H]-thymidine). The following applies: target cells pretreated with 60 ng/mL for 20 hr, washed; 48 hr with human leukocytes; 100:1 ratio of effector:target cells. The protocol: (§1) The question of whether drug treatment of the target tumor cells causes them to become susceptible to effector cells of the immune system was addressed as follows.
(§2) Leukocytes obtained by lysis of human peripheral blood were added to 5000 MM96L human melanoma cells or 7000 neonatal foreskin fibroblasts per microtitre well at effector: target ratios of 1000, 100 and 10:1. The target cells had been treated with 60 ng/mL PEP008 for 20 hr beforehand, and washed and the medium replaced before the leukocytes were added. After 48 hr incubation with the leukocytes the cultures were washed and labelled with [3H]-thymidine for 2 hr. […] Untreated leukocytes had no effect on cell survival.

The test system of series [3] is MM96L human melanoma cells. Briefly: Killing by untreated leukocytes of drug-pretreated tumor cells ([3H]-thymidine). The conditions noted are these: target cells pretreated with 60 ng/mL for 20 hr, washed; 48 hr with human leukocytes; 100:1 ratio of effector:target cells. The method, then: as §1, §2

Each structure is given as a SMILES string.

For the molecule `C/C=C(/C)C(=O)O[C@H]1C(C)=C[C@]23C(=O)[C@@H](C=C(CO)[C@@H](O)[C@]12O)[C@H]1[C@@H](C[C@H]3C)C1(C)C` [PEP005, Ingenol-3-angelate], in series [1], the “cytotoxicity of combination with cisplatin compared to additive cytotoxicity” value is recorded as “synergistic combinations” and the “cytotoxicity of combination with SBHA compared to additive cytotoxicity” value is recorded as “synergistic combinations”.
Turning to `C/C=C(/C)C(=O)O[C@H]1C(C)=C[C@]23C(=O)[C@H](C=C(C)[C@@H](O)[C@]12O)[C@H]1[C@@H](C[C@H]3C)C1(C)C` [PEP006, 20-deoxy-Ingenol-3-angelate], the “cytotoxicity of combination with cisplatin compared to additive cytotoxicity” value in series [1] is reported as “synergistic combinations”.
Regarding `C/C=C(/C)C(=O)O[C@H]1C(C)=C[C@]23C(=O)[C@@H](C=C(COC(C)=O)[C@@H](O)[C@]12O)[C@H]1[C@@H](C[C@H]3C)C1(C)C` [PEP008, 20-O-acetyl-ingenol-3-angelate], in series [1], the “cytotoxicity of combination with cisplatin compared to additive cytotoxicity” value is recorded as “synergistic combinations” and the “cytotoxicity of combination with SBHA compared to additive cytotoxicity” value was “synergistic combinations”. Moreover, in series [2], the “survival of normal fibroblasts” value came to 100%. For the same molecule, the “survival of melanoma cells” value in series [3] is listed as 12%.
